From ChEMBL document CHEMBL5244279, “Perspectives on SARS-CoV-2 Main Protease Inhibitors” (J Med Chem, 2021)
Peptide text beside a SMILES is read from it.

Assays:
[1] = target: T1, Replicase polyprotein 1ab (Severe acute respiratory syndrome coronavirus 2, UniProt P0DTD1); assay: Inhibition of N-terminal MBP-tagged SARS CoV-2 Main protease by fluorescence based analysis
[2] = Cytotoxicity against cat CRFK cells assessed as reduction of cell viability; assay type: toxicity, cell-based, Felis catus
[3] = Cytotoxicity against mouse L929 cells assessed as reduction of cell viability; assay type: toxicity, cell-based
[4] = Cytotoxicity against human Huh-7 cells assessed as reduction of cell viability; assay type: toxicity, cell-based
[5] = Cytotoxicity against African green monkey Vero E6 cells assessed as reduction of cell viability by CellTiterGlo assay; assay type: toxicity, cell-based, Vero C1008; settings: chlorocebus sabaeus
[6] = Inhibition of SARS CoV Main protease using Dabcyl-KTSAVLQSGFRKM-E(Edans)-NH2 peptide as substrate by FRET assay; parameters: species or system Severe acute respiratory syndrome-related coronavirus
SARS-CoV [7] = assay: Antiviral activity against SARS CoV infected in human Calu-3 cells assessed as reduction in viral RNA replication by qPCR analysis; assay type: functional, organism-based; settings: Severe acute respiratory syndrome-related coronavirus
[8] = Binding affinity to SARS CoV N-terminal his-tagged Main protease using Dabcyl-KTSAVLQSGFRKME-Edan peptide as substrate by fluorescence based analysis; parameters: species or system Severe acute respiratory syndrome-related coronavirus
[9] = Inhibition of SARS CoV N-terminal his-tagged Main protease using Dabcyl-KTSAVLQSGFRKME-Edan peptide as substrate by fluorescence based analysis; parameters: species or system Severe acute respiratory syndrome-related coronavirus
[10] = Cytotoxicity against human HCT-8 cells assessed as reduction in cell viability by neutral red uptake assay; assay type: toxicity, cell-based
SARS-CoV-2 [11] = assay type: functional, organism-based, Vero E6; settings: Severe acute respiratory syndrome coronavirus 2, strain 107, Vero C1008
[12] = Oral bioavailability in Sprague-Dawley rat; assay type: ADME, organism-based; settings: in vivo
[13] = Cytotoxicity against African green monkey Vero cells assessed as reduction in cell viability by neutral red uptake assay; assay type: toxicity, cell-based; settings: chlorocebus sabaeus
[14] = Cytotoxicity against dog MDCK cells assessed as reduction in cell viability by neutral red uptake assay; assay type: toxicity, cell-based, Canis lupus familiaris
[15] = Cytotoxicity against human Caco-2 cells assessed as reduction in cell viability by neutral red uptake assay; assay type: toxicity, cell-based
[16] = Cytotoxicity against human A549 cells assessed as reduction in cell viability by neutral red uptake assay; assay type: toxicity, cell-based
SARS-CoV [17] = assay type: functional, organism-based, Vero E6; settings: Severe acute respiratory syndrome-related coronavirus, 2019-nCoV/USA_WA1/2020, Vero C1008, 72 h
[18] = target: T1, Replicase polyprotein 1ab; assay: Inhibition of SARS CoV-2 Main protease using MCA-AVLQSGFR-Lys(DNP)-Lys-NH2 peptide as substrate by fluorescence based analysis
[19] = Binding affinity to SARS CoV Main protease incubated for 20 mins by reverse-phase HPLC analysis; parameters: species or system Severe acute respiratory syndrome-related coronavirus
[20] = Inhibition of SARS CoV Main protease by FRET assay; parameters: species or system Severe acute respiratory syndrome-related coronavirus
SARS-CoV-2 [21] = assay type: functional, organism-based, Vero E6; settings: Severe acute respiratory syndrome coronavirus 2, Vero C1008
[22] = Binding affinity to SARS CoV Main protease incubated for 10 mins by FRET assay; parameters: species or system Severe acute respiratory syndrome-related coronavirus

## Cc1cc(S(=O)(=O)c2c([N+](=O)[O-])cc(C(F)(F)F)cc2[N+](=O)[O-])c(Cl)cc1Cl
[1]
  IC50: 0.3 µM

## CC(C)C[C@H](NC(=O)OCc1ccccc1)C(=O)N[C@@H](C[C@@H]1CCNC1=O)C(O)S(=O)(=O)O (stereo partly drawn)
[2]
  CC50: > 200 µM
[3]
  CC50: > 200 µM
[4]
  CC50: > 200 µM
[5]
  CC50: > 200 µM

## O=C(/C=C/c1ccccc1)N[C@@H](CC1CCCCC1)C(=O)N[C@@H](C[C@@H]1CCNC1=O)C(=O)C(=O)NCc1ccccc1
[6]
  IC50: 0.71 µM
SARS-CoV [7]
  EC50: 1.4 µM

## O=C(/C=C/c1ccccc1)N[C@@H](CC1CC1)C(=O)N[C@@H](C[C@@H]1CCNC1=O)C(=O)C(=O)NCc1ccccc1
[6]
  IC50: 0.24 µM
SARS-CoV [7]
  EC50: 1.9 µM

## CC(C)C[C@H](NC(=O)/C=C/c1ccccc1)C(=O)N[C@@H](C[C@@H]1CCNC1=O)C(=O)C(=O)NCc1ccccc1
[6]
  IC50: 0.33 µM
SARS-CoV [7]
  EC50: 7.2 µM

## O=C[C@H](C[C@@H]1CCNC1=O)NC(=O)[C@H](CC1CCCCC1)NC(=O)c1cc2ccccc2[nH]1
[2]
  CC50: > 100 µM
[3]
  CC50: > 100 µM
[4]
  CC50: > 100 µM
[5]
  CC50: > 100 µM

## O=C(On1nnc2ccccc21)c1ccc2[nH]ccc2c1
[8]
  Ki: 0.0075 µM
[9]
  IC50: 0.2 µM

## CC(C)C[C@H](NC(=O)OCC1CCC(F)(F)CC1)C(=O)N[C@@H](C[C@@H]1CCNC1=O)C(O)S(=O)(=O)O (stereo partly drawn)
[2]
  CC50: > 100 µM
[3]
  CC50: > 100 µM
[10]
  CC50: > 100 µM
[4]
  CC50: > 100 µM

## CC1(C)[C@@H]2[C@@H](C(=O)N[C@H](C=O)C[C@@H]3CCNC3=O)N(C(=O)COc3ccc(OC(F)(F)F)cc3)C[C@@H]21
SARS-CoV-2 [11]
  EC50: 0.86 µM
[12]
  bioavailability: 14.6%

## CCC[C@H](NC(=O)[C@H](CC(C)C)NC(=O)OCc1ccccc1)C(=O)C(=O)NCc1ccccn1
[13]
  CC50: > 100 µM
[14]
  CC50: > 100 µM
[15]
  CC50: > 100 µM
[16]
  CC50: > 100 µM

## CCOC(=O)/C=C/[C@H](C[C@@H]1CCNC1=O)NC(=O)[C@H](CC(C)C)NC(=O)[C@@H](NC(=O)OCc1ccccc1)[C@@H](C)OC(C)(C)C
SARS-CoV [17]
  EC50: 2.88 µM
[18]
  IC50: 0.151 µM
[19]
  Ki: 0.058 µM

## CC(=O)/C=C/[C@H](C[C@@H]1CCNC1=O)NC(=O)[C@H](CC(C)C)NC(=O)[C@H](CNC(=O)C(C)(C)C)NC(=O)OCc1ccccc1
[19]
  Ki: 0.038 µM

## O=C[C@H](C[C@@H]1CCNC1=O)NC(=O)[C@@H]1[C@H]2CCC[C@H]2CN1C(=O)COc1ccc(Cl)cc1Cl
[12]
  bioavailability: 11.2%

## CC(C)C[C@H](NC(=O)OC1CCC(F)(F)CC1)C(=O)N[C@@H](C[C@@H]1CCNC1=O)C(O)S(=O)(=O)O (stereo partly drawn)
[20]
  IC50: 2.2 µM
[2]
  CC50: > 100 µM
[3]
  CC50: > 100 µM
[10]
  CC50: > 100 µM
[4]
  CC50: > 100 µM

## CC(C)C[C@H](NC(=O)OC1CCC(F)(F)CC1)C(=O)N[C@H](C=O)C[C@@H]1CCNC1=O
[20]
  IC50: 0.48 µM
SARS-CoV-2 [21]
  IC50: 2.3 µM
[2]
  CC50: > 100 µM
[3]
  CC50: > 100 µM
[4]
  CC50: > 100 µM

## CCCCC1CCC(OC(=O)N[C@@H](CC(C)C)C(=O)N[C@@H](C[C@@H]2CCNC2=O)C(O)S(=O)(=O)O)CC1 (stereo partly drawn)
[20]
  IC50: 1 µM
[2]
  CC50: 59.1 µM
[3]
  CC50: 59.1 µM
[4]
  CC50: 59.1 µM

## CC(C)C[C@H](NC(=O)/C=C\c1ccccc1)C(=O)N[C@H](C=O)C[C@@H]1CCCNC1=O
[22]
  Ki: 0.053 µM

## CC(C)C[C@H](NC(=O)OC1CCCCC1)C(=O)N[C@@H](C[C@@H]1CCNC1=O)C(O)S(=O)(=O)O (stereo partly drawn)
[20]
  IC50: 3.8 µM
[2]
  CC50: > 100 µM
[3]
  CC50: > 100 µM
[4]
  CC50: > 100 µM

## CC(C)C[C@H](NC(=O)[C@@H](NC(=O)OCc1ccccc1)[C@@H](C)OC(C)(C)C)C(=O)N[C@H](/C=C/C(=O)C1CC1)C[C@@H]1CCNC1=O
[19]
  Ki: 0.099 µM

## CC(=O)N[C@H](C(=O)N[C@H](C(=O)N[C@@H](CC(C)C)C(=O)N[C@@H](CCC(=O)N(C)C)C(=O)Cn1[nH]c(=O)c2c([N+](=O)[O-])cccc2c1=O)[C@@H](C)OCc1ccccc1)C(C)C
[1]
  IC50: 0.6 µM

## CSCC[C@@H](C=O)NC(=O)[C@H](CC(C)C)NC(=O)[C@H](CC(C)C)NC(C)=O (Ac-Leu-Leu-Met-aldehyde)
[13]
  CC50: > 100 µM
[14]
  CC50: > 100 µM
[15]
  CC50: > 100 µM
[16]
  CC50: > 100 µM

## O=c1cc(-c2ccccc2)oc2cc(O)c(O)c(O)c12 [BAICALEIN]
[5]
  CC50: > 200 µM
